# Results as given in patent US20090275586A1, “HETEROCYCLIC INHIBITORS OF PDE4” (KALYPSYS, INC., priority 2006, published 2009).
# Tests used:
# PDE4B = target: T1, PDE4B (Homo sapiens, UniProt Q07343); assay: PDE4 IMAP Assay; type: biochemical; conditions: 2 h; Activity at 10 μM; catalytic domain of PDE4B; read-out: PDE IMAP Assay
# T1 construct: hexa-histidine (His6) (N); made in house
# Source text: Compounds may be screened for functional potency in in vitro biochemical assays for their ability to inhibit the activity of phosphodiesterase (PDE) enzymes. A commercial PDE assay, Molecular Device's PDE IMAP assay, was modified and utilized to measure the inhibitory activity of compounds on PDE isoforms. The IMAP technology is based on the high affinity binding of phosphate by immobilized metal (MIII) coordination complexes on nanoparticles. This IMAP “binding reagent” complexes with phosphate groups on the nucleotide monophosphates generated in the reaction. Such binding causes a change in the rate of the molecular motion of the nucleotide, and results in an increase in the fluorescence polarization value observed for the fluorescent label attached to the substrate. PDE inhibitors prevent the generation of nucleotide monophosphates and the subsequent increase in polarization value observed for the fluorescent label attached to the substrate. The catalytic domain of PDE4B was fused to an amino-terminus hex-histadine affinity tag and purified. PDE4B enzyme was incubated with compounds for 10 minutes. Fluorescently labeled cyclic AMP substrates were then added to the PDE enzyme mix and incubated for 2 hours at room temperature. IMAP binding reagent was then added to the enzyme mix, incubated for 10-30 minutes and fluorescent polarization of the fluorescently labeled substrate was read either with the Perkin Elmer Viewlux or Molecular Devices Acquest or Analyst. Roflumilast and Rolipram are the positive controls used in the assay.
# PDE4 = PDE4 Cellular CNG Assay; type: cell-based; conditions: Activity at 10 μM; HEK293 cells stably expressing the CNG channel
# Source text: Compounds may be screened for functional potency in in vitro cellular assays for their ability to inhibit the activity of phosphodiesterase (PDE) enzymes. A commercial membrane potential assay, Molecular Device's membrane potential assay kit, was modified and utilized to measure the inhibitory activity of compounds on PDE isoforms in living cells. The cellular assay utilizes genetically engineered cyclic nucleotide-gated (CNG) channels as cyclic-AMP (cAMP) sensors. On binding cAMP these ion channels open, allowing the flow of cations across the plasma membrane. CNG channel activity can be monitored by measuring Ca^2+ influx in cell populations. The influx of Ca causes a change in membrane potential that is measured by voltage sensitive dyes. PDE inhibitors prevent the degradation of cAMP that is generated by adenylyl cyclases that are activated upon stimulation of G protein-coupled receptors (GPCR) linked to the cAMP pathway. In brief, Molecular Device's membrane potential dye was added to HEK293 cells stably expressing the CNG channel and incubated for 2 hours at room temperature. Test compounds were then added to the cells and incubated for 15 minutes. A GPCR agonist was then added to the cells to stimulate the cAMP pathway and incubated for 45 minutes. Fluorescent measurements were then conducted with either the Molecular Devices Acquest or Analyst. PDE inhibitors will inhibit the degradation of cAMP and cause an increase in fluorescent signal. Roflumilast and Rolipram are the positive controls used in the assay.
# T1 sequence (Q07343 330-659 limits assumed, species assumed): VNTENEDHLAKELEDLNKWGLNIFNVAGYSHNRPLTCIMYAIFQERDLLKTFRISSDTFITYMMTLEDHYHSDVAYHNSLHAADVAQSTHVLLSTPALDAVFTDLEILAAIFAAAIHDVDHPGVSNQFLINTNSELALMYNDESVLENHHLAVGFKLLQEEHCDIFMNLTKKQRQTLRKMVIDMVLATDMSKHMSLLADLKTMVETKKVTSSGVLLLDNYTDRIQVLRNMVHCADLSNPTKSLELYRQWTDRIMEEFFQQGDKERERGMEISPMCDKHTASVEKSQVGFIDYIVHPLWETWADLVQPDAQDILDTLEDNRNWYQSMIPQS
Structure (SMILES),inhibition at 10 µM (PDE4B) [%],Cellular CNG Assay (PDE4)
"CSc1nc(NC2CCCCC2)c2sccc2n1 [Example 13, N-cyclohexyl-2-(methylthio)thieno[3,2-d]pyrimidin-4-amine]",≥ 50,+ (+indicates Activity ≧ 50% at 10 μM)
"COc1ccc(-c2cnnn2-c2ccc(NC(=O)c3c(F)cccc3F)cc2)cc1OC [Example 22, N-(4-(5-(3,4-dimethoxyphenyl)-1H-1,2,3-triazol-1-yl)phenyl)-2,6-difluorobenzamide]",≥ 50,+ (+indicates Activity ≧ 50% at 10 μM)
"COc1ccc(CN(C(=O)c2cccc3ccccc23)C2CCCC2)cc1OC(C)C [Example 4, N-cyclopentyl-N-(3-isopropoxy-4-methoxybenzyl)-1-naphthamide]",≥ 50,+ (+indicates Activity ≧ 50% at 10 μM)
"NC(=O)CSc1nc2sc3c(c2c(=O)n1C1CCCC1)CCCC3 [Example 1, 2-(3-Cyclopentyl-4-oxo-3,4,5,6,7,8-hexahydro-benzo[4]thieno[2,3-d]pyrimidin-2-ylsulfanyl)-acetamide]",≥ 50,+ (+indicates Activity ≧ 50% at 10 μM)
"COc1ccc(CN(Cc2ccncc2)C(=O)c2ccc3[nH]c(C)c(C)c3c2)cc1OC [Example 3, N-(3,4-dimethoxybenzyl)-2,3-dimethyl-N-(pyridin-4-ylmethyl)-1H-indole-5-carboxamide]",≥ 50,+ (+indicates Activity ≧ 50% at 10 μM)
"Cc1ccc(S(=O)(=O)c2nnn3c2nc(NC(C)C)c2sccc23)cc1 [Example 7, N-isopropyl-3-tosylthieno[2,3-e][1,2,3]triazolo[1,5-a]pyrimidin-5-amine]",≥ 50,− (−indicates Activity < 50% at 10 μM)
"COc1ccc(NC(=O)c2ccccc2C(F)(F)F)cc1OC1CCCC1 [Example 12, N-(3-(cyclopentyloxy)-4-methoxyphenyl)-2-(trifluoromethyl)benzamide]",≥ 50,+ (+indicates Activity ≧ 50% at 10 μM)
"CCOc1ncccc1C(=O)Nc1ccc(S(=O)(=O)Nc2nccs2)cc1 [Example 20, 2-Ethoxy-N-(4-(N-thiazol-2-ylsulfamoyl)phenyl)nicotinamide]",≥ 50,+ (+indicates Activity ≧ 50% at 10 μM)
"COc1ccc(CN(C)C(=O)c2cnn(-c3nccc(-c4cccs4)n3)c2C)cc1OC [Example 5, N-(3,4-dimethoxybenzyl)-N,5-dimethyl-1-(4-(thiophen-2-yl)pyrimidin-2-yl)-1H-pyrazole-4-carboxamide]",≥ 50,+ (+indicates Activity ≧ 50% at 10 μM)
"CCNc1nc(NCC)n2c(SCc3nc4ccccc4c(=O)[nH]3)nnc2n1 [Example 2, 2-((5,7-Bis(ethylamino)-[1,2,4]triazolo[4,3-a][1,3,5]-triazin-3-ylthio)methyl)quinazolin-4(3H)-one]",≥ 50,+ (+indicates Activity ≧ 50% at 10 μM)
"CC(C)CCn1c(=O)c2ccccc2n2c(CN3CCN(c4ncccn4)CC3)nnc12 [Example 26, 4-Isopentyl-1-((4-(pyrimidin-2-yl)piperazin-1-yl)methyl)-[1,2,4]triazolo[4,3-a]quinazolin-5(4H)-one]",≥ 50,+ (+indicates Activity ≧ 50% at 10 μM)
"CCc1cccc(C)c1Nc1cc(NCCc2ccc(OC)c(OC)c2)ncn1 [Example 6, N4-(3,4-dimethoxyphenethyl)-N6-(2-ethyl-6-methylphenyl)pyrimidine-4,6-diamine]",≥ 50,+ (+indicates Activity ≧ 50% at 10 μM)
"CCOC(=O)N1CCN(C(=O)c2cnn3c(C(F)(F)F)cc(-c4ccc(OC)c(OC)c4)nc23)CC1 [Example 17, Ethyl 4-(5-(3,4-dimethoxyphenyl)-7-(trifluoromethyl)pyrazolo[1,5-a]pyrimidine-3-carbonyl)piperazine-1-carboxylate]",≥ 50,+ (+indicates Activity ≧ 50% at 10 μM)
"Cc1c(Cc2ccccc2)c(N2CCNCC2)n2c(nc3ccccc32)c1C#N [Example 25, 2-Benzyl-3-methyl-1-piperazin-1-yl-benzo[4,5]imidazo[2-a]pyridine-4-carbonitrile]",≥ 50,− (−indicates Activity < 50% at 10 μM)
"COc1ccc(S(=O)(=O)N2CC(C)(C)Oc3ccc(NC(=O)c4cccnc4SC)cc32)cc1OC [Example 10, N-(4-(3,4-dimethoxyphenylsulfonyl)-2,2-dimethyl-3,4-dihydro-2H-benzo[b][1,4]oxazin-6-yl)-2-(methylthio)nicotinamide]",≥ 50,+ (+indicates Activity ≧ 50% at 10 μM)
"COc1ccc(S(=O)(=O)N2CC(C)(C)Oc3ccc(NC(=O)c4ccccc4OC)cc32)cc1OC [Example 11, N-(4-(3,4-dimethoxyphenylsulfonyl)-2,2-dimethyl-3,4-dihydro-2H-benzo[b][1,4]oxazin-6-yl)-2-methoxybenzamide]",≥ 50,+ (+indicates Activity ≧ 50% at 10 μM)
"O=C(c1cccc(N2CCNC2=O)c1)N(CCC1=CCCCC1)Cc1cc2cc3c(cc2nc1N1CCOCC1)OCO3 [Example 19, N-(2-cyclohexenylethyl)-N-((6-morpholino-[1,3]dioxolo[4,5-g]quinolin-7-yl)methyl)-3-(2-oxoimidazolidin-1-yl)benzamide]",≥ 50,+ (+indicates Activity ≧ 50% at 10 μM)
"CC(C)n1c(=O)c(=O)n(Cc2cccc(C(F)(F)F)c2)c2cc(S(C)(=O)=O)ccc21 [Example 15, 1-Isopropyl-6-(methylsulfonyl)-4-(3-(trifluoromethyl)benzyl)quinoxaline-2,3(1H,4H)-dione]",≥ 50,+ (+indicates Activity ≧ 50% at 10 μM)
"C/C(NCCO)=C1\C(=O)N(c2nc3ccccc3s2)N=C1c1ccccc1 [Example 28, (E)-1-(Benzo[d]thiazol-2-yl)-4-(1-(2-hydroxyethylamino)ethylidene)-3-phenyl-1H-pyrazol-5(4H)-one]",≥ 50,+ (+indicates Activity ≧ 50% at 10 μM)
"COc1ccc(-c2cn3ccnc3c(NCc3ccccc3)n2)cc1OC [Example 24, N-benzyl-6-(3,4-dimethoxyphenyl)imidazo[1,2-a]pyrazin-8-amine]",≥ 50,
"O=c1n(Cc2ccncc2)nc2c3ccccc3nc(C3CC3)n12 [Example 21, 5-Cyclopropyl-2-(pyridin-4-ylmethyl)-[1,2,4]triazolo[4,3-c]quinazolin-3(2H)-one]",≥ 50,+ (+indicates Activity ≧ 50% at 10 μM)
"COc1ccccc1Cn1c(=O)c2cccnc2n(Cc2ccccc2F)c1=O [Example 27, 1-(2-Fluorobenzyl)-3-(2-methoxybenzyl)pyrido[2,3-d]pyrimidine-2,4(1H,3H)-dione]",≥ 50,+ (+indicates Activity ≧ 50% at 10 μM)
"CCOC(=O)C1=C(C)N(CC(C)C)C(=O)/C1=C\c1ccc(OC)c(OC)c1 [Example 29, (Z)-Ethyl 4-(3,4-dimethoxybenzylidene)-1-isobutyl-2-methyl-5-oxo-4,5-dihydro-1H-pyrrole-3-carboxylate]",≥ 50,+ (+indicates Activity ≧ 50% at 10 μM)
"COC(=O)c1ccc(Cn2c(=O)c(=O)n(C(C)C)c3ccc(C(F)(F)F)cc32)cc1 [Example 16, Methyl 4-((4-isopropyl-2,3-dioxo-7-(trifluoromethyl)-3,4-dihydroquinoxalin-1(2H)-yl)methyl)benzoate]",≥ 50,+ (+indicates Activity ≧ 50% at 10 μM)
"COc1ccc(-c2cnnn2-c2ccc(NC(=O)c3ccc4c(c3)OCO4)cc2)cc1OC [Example 23, N-(4-(5-(3,4-dimethoxyphenyl)-1H-1,2,3-triazol-1-yl)phenyl)benzo[d][1,3]dioxole-5-carboxamide]",≥ 50,+ (+indicates Activity ≧ 50% at 10 μM)
"CC(C)c1nc2sc3c(NCCCO)ncnc3c2c2c1COC(C)(C)C2 [Example 8, 3-(5-Isopropyl-2,2-dimethyl-1,4-dihydro-2H-3-oxa-7-thia-6,9,11-triazabenzo[c]fluoren-8-ylamino)-propan-1-ol]",≥ 50,+ (+indicates Activity ≧ 50% at 10 μM)
